Where a name gives a salt, the structure may show the parent alone.
Tests used:
[1] = test system: DU145-SLFN11 KO (CRISPR-Cas9 gene knockout of SLFN11); assay: Nuclear cell count growth inhibition, 4 to 8 days (Example 4); type: cell-based; settings: Prostate, HER2 Low, monotherapy
Procedure: (§1) Cells grown in their respective conditions were plated in 96-well plates at optimal density to allow linear proliferation for the duration of the assay (4 to 8 days; duration of treatment is dependent on the growth rate of each cell line). Immediately after plating, the cells were dosed with the indicated compounds for a total volume of 200 µL/well and placed in the incubator. Combinations were conducted as a 6 × 8 concentration response matrix for each combination. At the endpoint, the cells were fixed in 2% PFA for 20 minutes at room temperature. In order to obtain the number of cells at the start of treatment, one additional plate was used for each experiment and fixed after cells attached. The cells were then permeabilised in 0.5% Triton-X100 in PBS for 10 minutes. After a PBS wash, the cells were blocked in 5% FBS in PBS 1h at RT and incubated with primary antibodies in 5% FBS + 0.05% triton overnight at 4° C. After 3 washes in PBS cells were incubated with secondary antibodies in 5% FBS + 0.05% triton with Hoechst33258 for 1h at room temperature. After 3 washes in PBS, the cells were scanned with a Cellinsight instrument with a 10× objective and 9 fields/well. Images were analysed using Columbus for cell count based on nuclear Hoechst staining and nuclear intensity of other biomarkers investigated. […]

KPL4 = assay: Nuclear cell count growth inhibition / synergy and IF biomarkers, 4 to 8 days (Example 4); type: cell-based
Procedure: (§2) Cells grown in their respective conditions were plated in 96-well plates at optimal density to allow linear proliferation for the duration of the assay (4 to 8 days; duration of treatment is dependent on the growth rate of each cell line). Immediately after plating, the cells were dosed with the indicated compounds for a total volume of 200 µL/well and placed in the incubator. Combinations were conducted as a 6 × 8 concentration response matrix for each combination. At the endpoint, the cells were fixed in 2% PFA for 20 minutes at room temperature. In order to obtain the number of cells at the start of treatment, one additional plate was used for each experiment and fixed after cells attached. The cells were then permeabilised in 0.5% Triton-X100 in PBS for 10 minutes. After a PBS wash, the cells were blocked in 5% FBS in PBS 1h at RT and incubated with primary antibodies in 5% FBS + 0.05% triton overnight at 4° C. After 3 washes in PBS cells were incubated with secondary antibodies in 5% FBS + 0.05% triton with Hoechst33258 for 1h at room temperature. After 3 washes in PBS, the cells were scanned with a Cellinsight instrument with a 10× objective and 9 fields/well. Images were analysed using Columbus for cell count based on nuclear Hoechst staining and nuclear intensity of other biomarkers investigated. The total cell count/well was used to calculate the relative growth in each well compared to solvent control. […] The mean/well of the sum of the nuclear intensity of the IF biomarkers was also expressed relative to solvent control.

MDA-MB-468 = assay: as above; type: cell-based
Procedure: as §2

[2] = test system: ATR pathway in KPL4 (breast carcinoma) cells; assay: Antibody blots of ATR signaling (Example 6); type: cell-based
Procedure: (§3) Gastric cancer NCI-N87 and breast carcinoma KPL4 cell lines were cultured in RPMI 1640 supplemented with 10 % FCS in a humidified incubator at 37° C. with 5% CO2. Cells were plated in 6-well plates at optimal density to allow linear proliferation for the duration of the assay. […] 7 h, 24 h or 48 h after dosing, whole-cell extracts were obtained by lysis in 50 mM Tris-HC1 pH 7.5, 2% SDS containing protease and phosphatase inhibitors. Lysates were boiled for 5 minutes at 95° C. Protein concentration was measured using a Nanodrop at […] and 50 µg of lysate were loaded in 4-12% Bis Tris gels. Proteins were transferred using iblot2. Primary antibodies (see Table 7) were incubated overnight at 4° C. in 3% milk TBS-tween 0.05% and HRP-conjugated secondary antibodies for 1h at room temperature. Blots were imaged using a G-box.

[3] = test system: ATR pathway in NCI-N87 (gastric cancer) cells; assay: Antibody blots of ATR signaling (Example 6); type: cell-based
Procedure: as §3

NCI-N87 = assay: Nuclear cell count growth inhibition, 4 to 8 days (Example 4); type: cell-based; settings: Homo sapiens; NCI-N87, Gastric, HER2 High; monotherapy
Procedure: as §1

JIMT-1 = assay: Nuclear cell count growth inhibition / synergy, 4 to 8 days (Example 4); type: cell-based; settings: Homo sapiens; JIMT-1, Breast, HER2 Expressed; monotherapy
Procedure: as §1

SK-OV-3 = assay: as above; type: cell-based; settings: Homo sapiens; SK-OV-3, Ovarian, HER2 Moderate; monotherapy
Procedure: as §1

[4] = test system: NCI-N87 tumors implanted subcutaneously; assay: NCI-N87 xenograft tumor growth inhibition (Example 5); type: in vivo, Female Nude mice; settings: AZD6738 25 mg/kg PO BID (14 d-on/14-d off); day 40 post treatment
[5] = DS-8201 at 30 µg/mL or exatecan mesylate alone, 7 h, 24 h or 48 h
[6] = AZD6738 at 1 µM in combination with DS-8201 or exatecan mesylate

Structure (SMILES): CC[C@@]1(O)C(=O)OCc2c1cc1n(c2=O)Cc2c-1nc1cc(F)c(C)c3c1c2[C@@H](N)CC3 [Exatecan mesylate, (1S,9S)-1-amino-9-ethyl-5-fluoro-1,2,3,9,12,15-hexahydro-9-hydroxy-4-methyl-10H,13H-benzo[de]pyrano[3′,4′:6,7]indolizino[1,2-b]quinolin-10,13-dione, reference compound]
- GI50 [1]: 0.00045 µM
- Biomarkers of ATM (KAP1 pSer824) activation and DNA strand breaks (γH2AX) (KPL4; KPL4, single agent): induced in a concentration dependent manner
- Combination activity with AZD6738 (in words) (KPL4; high-HER2 KPL4, in combination with AZD6738, clinically relevant concentrations): synergistic activity and cell death
- Combination activity with AZD6738 (in words) (MDA-MB-468; HER2-negative MDA-MB-468, in combination with AZD6738): still showed combination activity
- ATR pathway (pATR-T1989, pChk1-S345) and cell cycle arrest (pCdc2-Y15) [2, 5]: induced activation of the ATR pathway
- ATR pathway (pATR-T1989, pChk1-S345) and cell cycle arrest (pCdc2-Y15) [3, 5]: induced activation of the ATR pathway

Structure (SMILES): C[C@@H]1COCCN1c1cc(C2([S@](C)(=N)=O)CC2)nc(-c2ccnc3[nH]ccc23)n1 [AZD6738, 4-{4-[(3R)-3-methylmorpholin-4-yl]-6-[1-((R)-S-methylsulfonimidoyl)cyclopropyl]pyrimidin-2-yl}-1H-pyrrolo[2,3-b]pyridine]
- GI50 (NCI-N87): 0.436 µM
- GI50 (KPL4; KPL4, Breast, HER2 High, monotherapy): > 3 µM
- GI50 (MDA-MB-468; Homo sapiens, MDA-MB-468, Breast, HER2 Low, monotherapy): 2.07 µM
- GI50 (JIMT-1): 0.788 µM
- GI50 (SK-OV-3): 1.01 µM
- Best response %TGI/regression (maximum TGI) [4]: 62%
- Activation of pATR and pChk1 and cell cycle arrest induced by DS-8201 or exatecan mesylate ([2]; AZD6738 at 1 µM in combination): inhibited the activation of pATR and pChk1 and cell cycle arrest
- Cell death (cCasp3) [2, 6]: increased cell death
- DNA damage (pKap1, gH2AX) [2, 6]: exacerbating the DNA damage
- Activation of pATR and pChk1 and cell cycle arrest induced by DS-8201 or exatecan mesylate ([3]; AZD6738 at 1 µM in combination): inhibited the activation of pATR and pChk1 and cell cycle arrest
- Cell death (cCasp3) [3, 6]: increased cell death
- DNA damage (pKap1, gH2AX) [3, 6]: exacerbating the DNA damage
